The nature of data set [1]: Cytotoxicity against human H357 cells. In kind it is functional, cell-based.
Data set [2] concerns MDA-MB-231. Nature of the data set: Cytotoxicity against human MDA-MB-231 cells. In kind it is functional, cell-based.
Data set [3] relates to HCT-116. Nature of the data set: Cytotoxicity against human HCT-116 cells assessed a reduction in cell viability. In kind it is functional, cell-based.
Data set [4] has as its system MCF7. Nature of the data set: Cytotoxicity against human MCF7 cells. In kind it is functional, cell-based.
Data set [5] can be described thus: Anticancer activity against human BJ cells assessed as reduction in cell proliferation. In kind it is toxicity, cell-based.
Another data set concerns CCRF-CEM. Nature of the data set: Anticancer activity against human CEM cells. In kind it is functional, cell-based.
In data set [6] the test system is MCF7. Nature of the data set: Anticancer activity against human MCF7 cells assessed as reduction in cell proliferation. In kind it is functional, cell-based.
For another data set, the system named is HeLa. Nature of the data set: Anticancer activity against human HeLa cells assessed as reduction in cell proliferation. In kind it is functional, cell-based.
For another data set, the system named is Jurkat. Nature of the data set: Cytotoxicity against human Jurkat cells. In kind it is functional, cell-based.
Data set [7] concerns A549. Nature of the data set: Cytotoxicity against human A549 cells incubated for 72 hrs by MTT assay. In kind it is functional, cell-based. To be noted: A549, 72 h. In general terms: Tetrazolium assays rely on reduction of a dye to a coloured formazan, in cell work by metabolically active cells.
Data set [8] concerns MCF7. Nature of the data set: Cytotoxicity against human MCF7 cells incubated for 72 hrs by MTT assay. In kind it is functional, cell-based. To be noted: MCF7, 72 h.
Data set [9] can be described thus: Cytotoxicity against HEK293T cells incubated for 72 hrs by MTT assay. In kind it is toxicity, cell-based, HEK-293T. To be noted: human.
Data set [10] is described as follows: Cytotoxicity against human VA13 cells incubated for 72 hrs by MTT assay. In kind it is toxicity, cell-based. To be noted: VA13 (WI-38 VA13) cells.
The next data set deals with Erythrocyte. Nature of the data set: Cytotoxicity against human Erythrocyte by MTT assay. In kind it is functional, cell-based.
Data set [11] has as its system MDA-MB-231. Nature of the data set: Cytotoxicity against human MDA-MB-231 cells by MTT assay. In kind it is functional, cell-based.
A further data set has as its system HBL. Nature of the data set: Cytotoxicity against human HBL cells by MTT assay. In kind it is functional, cell-based.
Data set [12] relates to A549. Nature of the data set: Cytotoxicity against human A549 cells by MTT assay. In kind it is functional, cell-based.
Data set [13] concerns MCF7. Nature of the data set: Cytotoxicity against human MCF7 cells by MTT assay. In kind it is functional, cell-based.
The test system of data set [14] is MCF7. Nature of the data set: Cytotoxicity against human MCF7 cells assessed as lethal dose. To be noted: read-out: LD50 (the source's name). In kind it is functional.
The subject of data set [15] is MCF7. Nature of the data set: Cytotoxicity against human MCF7 cells incubated overnight by MTT assay. In kind it is functional, cell-based.
Data set [16] concerns HCT-116. Nature of the data set: Cytotoxicity against human HCT-116 cells incubated overnight by MTT assay. In kind it is functional, cell-based.
The test system of data set [17] is HepG2. Nature of the data set: Cytotoxicity against human HepG2 cells incubated overnight by MTT assay. In kind it is functional, cell-based.
For data set [18], the system named is A549. Nature of the data set: Anticancer activity against human A549 cells assessed as reduction in cell proliferation. In kind it is functional, cell-based.
The next data set relates to PC-3. Nature of the data set: Anticancer activity against human PC-3 cells assessed as reduction in cell proliferation. In kind it is functional, cell-based.
A further data set has as its system HOP-92. Nature of the data set: Anticancer activity against human HOP-92 cells assessed as reduction in cell proliferation. In kind it is functional, cell-based.
The next data set deals with UO-31. Nature of the data set: Anticancer activity against human UO-31 cells assessed as reduction in cell proliferation. In kind it is functional, cell-based.
In data set [19] the test system is A549. Nature of the data set: Antiproliferative activity against human A549 cells assessed as cell growth inhibition. In kind it is functional, cell-based.
A further data set deals with MGC-803. Nature of the data set: Antiproliferative activity against human MGC-803 cells assessed as cell growth inhibition. In kind it is functional, cell-based.
Data set [20] can be described thus: Antiproliferative activity against human Panel (10 carcinoma cell lines) cells. In kind it is functional, cell-based.
For data set [21], the system named is HCT-116. Nature of the data set: Antiproliferative activity against human HCT-116 cells assessed as cell growth inhibition. In kind it is functional, cell-based.
The subject of the next data set is Bel-7402. Nature of the data set: Antiproliferative activity against human Bel-7402 cells. In kind it is functional, cell-based.
In a further data set the test system is NCI-H460. Nature of the data set: Growth inhibition of human NCI-H460 cells. In kind it is functional, cell-based.
Another data set concerns HaCaT. Nature of the data set: Growth inhibition of human HaCaT cells. In kind it is functional.
A further data set relates to CT26. Nature of the data set: Anticancer activity against mouse CT26 cells at 50 ug/ml measured after 24 hrs relative to control. In kind it is functional. To be noted: dose 50 µg/ml.
Data set [22] concerns HCT-116. Nature of the data set: Anticancer activity against human HCT-116 cells. In kind it is functional, cell-based.
Data set [23] concerns HepG2. Nature of the data set: Anticancer activity against human HepG2 cells assessed as inhibition of cell growth. In kind it is functional, cell-based.
The subject of data set [24] is MCF7. Nature of the data set: Anticancer activity against human MCF7 cells assessed as inhibition of cell growth. In kind it is functional, cell-based.
For data set [25], the system named is MDA-MB-231. Nature of the data set: Antiproliferative activity against human MDA-MB-231 cells assessed as reduction in tumor cell proliferation. In kind it is functional, cell-based.

Values after ≈ are worked out from the molar mass of the structure shown. Where only a bound is given, the exact number is not on record here.

The IC50 is the concentration that gives 50% inhibition. A word on the GI50: it is the concentration giving 50% growth inhibition. The low end stands for more potent growth inhibition, the high end for less potent growth inhibition.

With `CCOc1cccc2c1OCC1=CCC3(O[C@H]12)C(=O)c1ccccc1C3=O`, the IC50 in data set [1] was 55 µM; with MDA-MB-231 [2], 15 µM; in the data set with HCT-116 [3], 27.5 µM; with MCF7 [4] it was 20 µM.
For `CC1CO[C@@]2(O[C@H]3CC4C5CC[C@@H]6C[C@@H](O)CC[C@]6(C)C5CC(=O)[C@]4(C)[C@H]3[C@@H]2C)/C(=C/c2ccccc2)C1` (some centres not stated), the IC50 was 45.3 µM in [5], 23.2 µM with CCRF-CEM, 19.9 µM with MCF7 [6] and 35.7 µM in the data set with HeLa.
`O=C(/C=C1\CC(=O)N(c2ccc(Cl)cc2)C1=O)Nc1ccc(Cl)cc1`: in the data set on Jurkat, the concentration for half-maximal inhibition (IC50) came out at 33.5 µM.
Regarding `CN1C[C@H](c2ccc(F)cc2)[C@]2(NC(=O)NC2=O)C12C(=O)Nc1ccccc12` (some centres not stated), the IC50 came out at 7.5 µM with A549 [7] and 18.3 µM with MCF7 [8]. Further, the IC50 at 72 h in data set [9] worked out at 14.3 µM; in data set [10], 20.8 µM.
Take `Cc1ccc2c(c1)C1(CC(=O)C=NO1)C(=O)N2` (configuration not stated): the half-inhibitory concentration (IC50) with Erythrocyte was > 100 µM; in the data set with MDA-MB-231 [11], 0.34 µM; in the data set on HBL, > 100 µM; in the data set with A549 [12], 13.2 µM; in the data set with MCF7 [13], > 30 µM.
With `COC1=C(Br)[C@@H](O)[C@]2(C=C1Br)CC(C(=O)NCC(O)c1cc(Br)c(OCCCNC(=O)C3=NO[C@]4(C=C(Br)C(OC)=C(Br)[C@@H]4O)C3)c(Br)c1)=NO2` (some centres not stated), the CC50 in the data set with MCF7 [14] turned out to be 17 µg/mL (≈ 15.5 µM).
For `O=C(/C=C/c1ccc(Br)cc1)[C@H]1[C@H](c2ccc(Br)cc2)C2CSCN2[C@]12C(=O)Nc1cc(Br)c(Br)cc12` (some centres not stated), the IC50 with MCF7 [15] was 2.5 µM; in the data set with HCT-116 [16], 2.2 µM; with HepG2 [17], 50 µM.
Turning to `Cc1ccc(/C=C2\CN(C)C[C@]3(C2=O)[C@H](c2ccc(C)cc2)CN(C)[C@]32C(=O)N(CN3CCOCC3)c3ccccc32)cc1`, the IC50 in the data set on A549 [18] amounted to 3.59 µM; with PC-3 it was 0.831 µM; in the data set with HOP-92, 1.4 µM; in the data set with UO-31, 1.77 µM.
For the compound `O=C(C[C@@H](CC1CCCC1)C(=O)N1CC2(CC2)C[C@H]1C(=O)Nc1ccc(F)cn1)NO`, the IC50 in the data set with A549 [19] came to 4.88 µM; with MGC-803 it was 4.88 µM; in data set [20], 2 µM; in the data set on HCT-116 [21], 4.88 µM; in the data set on Bel-7402, 4.88 µM.
With `CN1C[C@H](c2ccc(Cl)cc2)[C@]2(NC(=O)NC2=O)C12C(=O)Nc1ccc(Br)cc12` (some centres not stated), the results for the IC50 with A549 [7] and in the data set on MCF7 [8] were 6.6 µM and 24.1 µM, respectively. Moreover, the values for the IC50 at 72 h in data set [9] and in [10] were 9.2 µM and 11.9 µM, respectively.
In the data set on NCI-H460, `COc1ccc(/C=N/N2C(=O)C(C#N)=CC23c2ccccc2NC2C=CC=CC23)cc1` (configuration not stated) yielded an IC50 of 0.12 µM.
As to `N#CC1=CC2(c3ccccc3NC3C=CC=CC32)N(/N=C/c2ccccc2)C1=O` (configuration not stated), the GI50 in the data set on HaCaT was 2 µM.
The compound `CCOC(=O)[C@@H]1N[C@@](CC(=O)OC)(C(=O)OC)C2(C(=O)N(C(=O)OC(C)(C)C)c3ccccc32)[C@H]1c1ccc([N+](=O)[O-])cc1` (some centres not stated) displayed an Activity with CT26 of 58.89%.
In the case of `O=C1Nc2ccccc2C12CC(c1cn(S(=O)(=O)c3ccc(Cl)cc3)c3ccccc13)=NN2` (configuration not stated), the IC50 amounted to 20.5 µg/mL (≈ 43 µM) in the data set with HCT-116 [22], 19.2 µg/mL (≈ 40.3 µM) in the data set with HepG2 [23] and 5.8 µg/mL (≈ 12.2 µM) in the data set with MCF7 [24].
Regarding `O=C1N(C2CCCCC2)C(=O)C2(CC(c3ccccc3O)=NCCN2)N1C1CCCCC1` (configuration not stated), the IC50 with MDA-MB-231 [25] came to 44.6 µM.
